{"source": "patent US20240269230A1", "about": "(priority 2020, published 2024)", "key": {"kOR [1]": {"target": "T1, kOR (Mus musculus, UniProt P33534)", "T1 sequence (P33534 whole entry)": "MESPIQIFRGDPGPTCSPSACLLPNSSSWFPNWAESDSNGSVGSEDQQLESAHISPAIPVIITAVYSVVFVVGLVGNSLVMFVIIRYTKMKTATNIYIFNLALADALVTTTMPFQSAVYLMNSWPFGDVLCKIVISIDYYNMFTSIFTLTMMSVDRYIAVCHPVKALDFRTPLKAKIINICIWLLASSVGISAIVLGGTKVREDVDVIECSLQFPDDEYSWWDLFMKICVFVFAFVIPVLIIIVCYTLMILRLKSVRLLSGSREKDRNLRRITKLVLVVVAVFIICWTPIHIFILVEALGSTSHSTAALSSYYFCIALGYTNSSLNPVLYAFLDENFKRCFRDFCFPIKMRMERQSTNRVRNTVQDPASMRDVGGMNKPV", "experiment": "biochemical", "assay_type": "binding"}, "[2]": {"conditions": "mouse, in vivo, ip"}, "T-cell proliferation": {"system": "T-cell proliferation", "conditions": "in vitro; IL-2-dependent mechanism; cited from earlier work"}, "kOR [3]": {"target": "T1, kOR", "experiment": "cell-based"}, "hKOR": {"target": "hKOR (Homo sapiens, UniProt P41145)", "sequence (P41145 whole entry)": "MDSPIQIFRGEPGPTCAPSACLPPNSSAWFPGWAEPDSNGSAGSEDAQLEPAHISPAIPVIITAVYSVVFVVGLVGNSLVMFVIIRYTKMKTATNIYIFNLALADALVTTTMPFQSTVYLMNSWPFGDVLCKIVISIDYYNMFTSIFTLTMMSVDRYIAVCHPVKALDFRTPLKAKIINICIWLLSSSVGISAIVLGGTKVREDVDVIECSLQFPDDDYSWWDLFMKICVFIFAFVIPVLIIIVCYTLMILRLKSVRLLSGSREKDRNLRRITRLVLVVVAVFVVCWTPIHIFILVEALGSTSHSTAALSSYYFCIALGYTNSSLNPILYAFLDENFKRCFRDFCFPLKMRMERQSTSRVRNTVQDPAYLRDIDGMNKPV", "conditions": "cited from earlier work"}, "kOR [4]": {"target": "T1, kOR", "assay_type": "cell-based"}, "EAE mouse model": {"system": "EAE mouse model", "conditions": "mice; oral administration; cited from earlier work"}}, "note": "“And” between values parts separate entries of the source, which are not always exact repeats. Equal entries are not always repeated. Bridge positions count the residues as written; N and C are the ends. Ends that are not written are not given here. Peptide text beside a SMILES is read from it.", "data": [{"compound": "vitri cyclotide: novel cyclotide isolated from Viola tricolor, GDPIPCGETCFTGKCYSETIGCTCEWPICTKN (not fully specified (bridges); ends and bridges not checked; also: cyclic, type not given here)", "values": [{"measurement": "Binding of isolated vitri peptide to the kOR", "setting": "kOR [1]", "result": "able to bind to the kOR"}]}, {"compound": "Cc1cc(-c2ccc(/N=N/c3ccc4c(S(=O)(=O)[O-])cc(S(=O)(=O)[O-])c(N)c4c3O)c(C)c2)ccc1/N=N/c1ccc2c(S(=O)(=O)[O-])cc(S(=O)(=O)[O-])c(N)c2c1O.[Na+].[Na+].[Na+].[Na+]", "note": "[EvansBlue dye, reference compound]", "values": [{"measurement": "Biodistribution: brain", "setting": "[2]", "result": "strong signal"}, {"measurement": "Biodistribution: spine", "setting": "[2]", "result": "strong signal"}]}, {"compound": "kalata B1: circular plant peptide (cyclotide), GLPVCGETCVGGTCNTPGCTCSWPVCTRN (cyclo(GLPVCGETCVGGTCNTPGCTCSWPVCTRN); ends not checked; also: three disulfide bonds (cystine knot), pairing not given here; listed as Oldenlandia affinis)", "values": [{"measurement": "T-cell proliferation", "setting": "T-cell proliferation", "result": "silence T-cell proliferation"}]}, {"compound": "dynorphin A 1-13 [reference compound]", "values": [{"measurement": "Receptor activation cAMP Emax (%)", "setting": "kOR [3]", "result": "113% and 104% and 119% and 134% and 137% and 96%"}]}, {"compound": "conjugated [T20K]-kalata B1: [T20K]-kalata B1 conjugated to VivoTag 680 XL Fluorochrome (GLPVCGETCVGGTCNTPGCKCSWPVCTRN; ends and bridges not checked; also: conjugated to VivoTag 680 XL fluorochrome (place not given here); UniProt P56254 89-117, looked up, variant T20K)", "values": [{"measurement": "Biodistribution: brain", "setting": "[2]", "result": "accumulated in the brain"}, {"measurement": "Biodistribution: spine", "setting": "[2]", "result": "also in the spine but to a far less extent"}]}, {"compound": "CC[C@H](C)[C@@H]1NC(=O)[C@H](C(C)C)NC(=O)[C@H]([C@@H](C)O)NC(=O)[C@H](CO)NC(=O)[C@H](Cc2ccccc2)NC(=O)[C@@H]2CSSC[C@@H]3NC(=O)[C@H](C(C)C)NC(=O)[C@H](CCCCN)NC(=O)[C@H](CC(N)=O)NC(=O)[C@H](CCCCN)NC(=O)[C@@H]4CSSC[C@H](NC(=O)[C@H](CO)NC(=O)[C@H](CCC(=O)O)NC(=O)CNC(=O)[C@H](CSSC[C@H](NC(=O)CNC1=O)C(=O)N[C@@H](CO)C(=O)N4)NC(=O)[C@@H]1CCCN1C(=O)[C@H]([C@@H](C)CC)NC(=O)[C@H](C(C)C)NC(=O)CNC(=O)[C@H](CC(N)=O)NC(=O)[C@H](CCCNC(=N)N)NC(=O)[C@H](Cc1ccc(O)cc1)NC3=O)C(=O)N[C@@H](C(C)C)C(=O)N[C@@H](Cc1ccccc1)C(=O)N[C@@H]([C@@H](C)CC)C(=O)N1CCC[C@H]1C(=O)N2", "note": "[caripe 10] (cyclo(CFSTVIGCSCKNKVCYRNGVIPCGESCVFIP); disulfide 1-15, 8-23, 10-27 (inferred); ring closure inferred)", "values": [{"measurement": "Ki", "setting": "kOR [1]", "result": 1000, "unit": "nM"}]}, {"compound": "CC(C)C[C@@H]1NC(=O)CNC(=O)[C@H](CC(N)=O)NC(=O)[C@H](CCCNC(=N)N)NC(=O)[C@H]([C@@H](C)O)NC(=O)[C@@H]2CSSC[C@@H]3NC(=O)[C@H]([C@@H](C)O)NC(=O)CNC(=O)CNC(=O)[C@H](C(C)C)NC(=O)[C@@H]4CSSC[C@H](NC(=O)[C@H](CCCCN)NC(=O)[C@H](CSSC[C@H](NC(=O)[C@H](C(C)C)NC(=O)[C@@H]5CCCN5C1=O)C(=O)NCC(=O)N[C@@H](CCC(=O)O)C(=O)N[C@@H]([C@@H](C)O)C(=O)N4)NC(=O)CNC(=O)[C@@H]1CCCN1C(=O)[C@H]([C@@H](C)O)NC(=O)[C@H](CC(N)=O)NC3=O)C(=O)N[C@@H](CO)C(=O)N[C@@H](Cc1c[nH]c3ccccc13)C(=O)N1CCC[C@H]1C(=O)N[C@@H](C(C)C)C(=O)N2", "note": "[[T20K]-kalata B1] (cyclo(CGETCVGGTCNTPGCKCSWPVCTRNGLPV); disulfide 1-15, 5-17, 10-22 (inferred); ring closure inferred)", "values": [{"measurement": "Binding to and activation of hKOR", "setting": "hKOR", "result": "bind to and activate hKOR"}, {"measurement": "EC50", "setting": "kOR [3]", "result": 17000, "unit": "nM"}, {"measurement": "Effect on the efficacy of U50,488 (cAMP)", "setting": "kOR [3]", "result": "only slightly affected the efficacy"}, {"measurement": "Effect on the efficacy of dynorphin A 1-13 (cAMP)", "setting": "kOR [3]", "result": "increase in its efficacy"}, {"measurement": "Effect on the potency of dynorphin A 1-13 (cAMP)", "setting": "kOR [3]", "result": "does not affect the potency"}, {"measurement": "Mode of action at the kOR", "setting": "kOR [3]", "result": "full agonist"}, {"measurement": "Shift in the potency of U50,488 (cAMP)", "setting": "kOR [3]", "result": "nine-fold leftward shift in the potency"}, {"measurement": "Effect on the affinity of dynorphin A 1-13", "setting": "kOR [1]", "result": "only slightly affects the affinity"}, {"measurement": "Effect on tritiated diprenorphine binding", "setting": "kOR [1]", "result": "negatively modulates tritiated diprenorphine"}, {"measurement": "Ki", "setting": "kOR [1]", "result": 2700, "unit": "nM"}, {"measurement": "Effect on the efficacy of U50,488 to recruit beta arrestin", "setting": "kOR [4]", "result": "remarkable alleviation of the efficacy"}, {"measurement": "Effect on the potency of U50,488 to recruit beta arrestin", "setting": "kOR [4]", "result": "not impinging on its potency"}, {"measurement": "beta arrestin recruitment", "setting": "kOR [4]", "result": "no recruitment of beta arrestin could be detected"}, {"measurement": "Symptoms of EAE", "setting": "EAE mouse model", "result": "significant delay and diminished symptoms of EAE"}]}]}
